Laboratory results from publication PMC6311682, “Design, Synthesis, and Biological Evaluation of 2-Nitroimidazopyrazin-one/-es with Antitubercular and Antiparasitic Activity” (Journal of Medicinal Chemistry, 2018).
In brackets after ≈: the same amount, converted by molar mass. Where two headings read alike, the source gives them in different places.

Tests used:
[1] = in vitro; conditions: human
[2] = test system: ESKAPE pathogens S. aureus (ATCC 43300), E. coli (ATCC 25922), K. pneumoniae (ATCC 700603), A. baumannii (ATCC 19606), P. aeruginosa (ATCC 27853); assay: Broth microdilution MIC assay, ESKAPE pathogens; type: cell-based
[3] = Broth microdilution MIC assay, ESKAPE pathogens; type: cell-based; conditions: S. aureus, E. coli, K. pneumoniae, A. baumannii, P. aeruginosa; read-out: antibacterial MIC ESKAPE
[4] = test system: L. donovani MHOM/IN/80/DD8 (ATCC50212); assay: L. donovani DD8 intracellular (THP-1) amastigote assay; type: cell-based; conditions: Leishmania donovani
[5] = Caco-2 monolayer bidirectional permeability assay; conditions: human, Caco-2, pH 7.4
[6] = Plasma protein binding, ultrafiltration method; type: in vitro ADME; conditions: human plasma, % bound; for fraction unbound at 0.5 h, 5 µM: read-out: PPB (%) (converted)
[7] = Kinetic solubility determination by LC-UV; conditions: room temperature, 1% DMSO
[8] = test system: C. albicans (ATCC 90028) and C. neoformans (H99, ATCC 208821); assay: Broth microdilution MIC assay, fungi; type: cell-based; conditions: for MIC: Candida albicans, read-out: antifungal MIC
[9] = Mammalian cytotoxicity assay (resazurin), HepG2; conditions: human, HepG2 cells
[10] = Mammalian cytotoxicity assay (resazurin), HEK293; conditions: human, HEK293 cells
[11] = test system: C. difficile (630, ATCC BAA-1382); assay: Broth microdilution MIC assay, C. difficile; type: cell-based, Clostridium difficile; conditions: 630 ATCC BAA-1382, median MIC; for MIC: Clostridioides difficile, ATCCBAA1382, read-out: antibacterial MIC C. difficile
[12] = physchem
[13] = test system: M. tuberculosis; conditions: cited from earlier work
[14] = Mammalian cytotoxicity, liver HepG2 and kidney HEK293 cell lines stated together; conditions: human
[15] = test system: M. tuberculosis (H37Rv); assay: M. tuberculosis H37Rv resazurin reduction microplate MIC assay, hypoxic conditions (0.1% oxygen); type: cell-based, Mycobacterium tuberculosis; conditions: H37Rv, hypoxia (0.1% oxygen)
[16] = in vitro; conditions: human; remark: listed apart in the source
[17] = in vitro; conditions: human; remark: listed apart in the source
[18] = test system: E. histolytica (HM1:IMSS); assay: ATP-bioluminescence cell growth and survival assay, E. histolytica trophozoites; type: cell-based; conditions: Entamoeba histolytica
[19] = test system: G. lamblia (WB line); assay: ATP-bioluminescence cell growth and survival assay, G. lamblia trophozoites; type: cell-based; conditions: Giardia duodenalis
[20] = test system: M. tuberculosis (H37Rv); assay: M. tuberculosis H37Rv resazurin reduction microplate MIC assay, normoxic conditions; type: cell-based; conditions: Mycobacterium tuberculosis, normoxia, read-out: antibacterial MIC M. tuberculosis normoxia
[21] = test system: T. b. brucei (strain 427, BS427); assay: 384-well resazurin viability assay, T. b. brucei bloodstream parasites; type: cell-based; conditions: Trypanosoma brucei, BS427, n = 2
[22] = read-out: antiparasitic IC50 L. donovani
[23] = read-out: antiparasitic pIC50 ± SE L. donovani (converted)
[24] = PBS, pH 7.4, Solubility µM (PBS), PBS pH 7.4, 24 h
[25] = water, Solubility µM (H2O), 24 h
[26] = read-out: antiparasitic IC50 E. histolytica
[27] = read-out: antiparasitic pIC50 ± SE E. histolytica (converted)

SMILES | antibacterial MIC ESKAPE [2] | MIC [3] | IC50 [4, 22] | IC50 [4, 23] | fraction unbound at 0.5 h, 5 µM [6] | solubility at 24 h [7, 24] | solubility at 24 h [7, 25] | antifungal MIC [8] | MIC [8] | CC50 at 24 h [9] | CC50 at 24 h [10] | antibacterial MIC C. difficile [11] | MIC [11] | also measured
CC(Cc1ccc(O)cc1)NCC(O)c1cc(O)cc(O)c1 (stereo not drawn) [fenoterol] | – | – | – | – | – | – | – | – | – | – | – | – | – | Papp A→B at 2 h, 2 µM ([1]; Caco-2, pH 7.4): 0.27 ×10⁻⁶ cm/s; recovery at 2 h, 2 µM ([1]; Caco-2, pH 7.4, mean recovery (%) A to B): 92%
O=c1c2nc([N+](=O)[O-])cn2ccn1Cc1cccc(OC(F)(F)F)c1 [17f, 2-Nitro-7-(3-(trifluoromethoxy)benzyl)imidazo[1,2-a]pyrazin-8(7H)-one] | > 32 µg/mL | > 32 µg/mL | > 80 µM | > 79.4 µM | 0.01 | < 5 µM | < 5 µM | – | – | – | – | – | – | Papp A→B at 2 h, 2 µM [5]: 24 ×10⁻⁶ cm/s; Papp A→B at 2 h, 2 μM [5]: > 20 ×10⁻⁶ cm/s; Papp B→A at 2 h, 2 µM [5]: 24 ×10⁻⁶ cm/s
Cc1cn2cc([N+](=O)[O-])nc2c(=O)n1Cc1ccc(OC(F)(F)F)cc1 [25f, 6-Methyl-2-nitro-7-(4-(trifluoromethoxy)benzyl)imidazo[1,2-a]pyrazin-8(7H)-one] | >32 µg/mL | > 32 µg/mL | > 80 µM | > 79.4 µM | 0.02 | < 5 µM | < 5 µM | >32 µg/mL | > 32 µg/mL | > 100 µM | > 100 µM | >64 µg/mL | > 64 µg/mL | –
O=[N+]([O-])c1cn2c(n1)OC[C@@H](OCc1ccc(OC(F)(F)F)cc1)C2 [pretomanid 6, pretomanid, reference compound] | > 32 µg/mL | – | – | – | – | – | – | > 32 µg/mL | – | > 100 µM | > 100 µM | – | – | solubility [12]: 11.3 ± 3.07 µM (≈ 4.06 µg/mL); solubility ([12]; pH 7.4): 10.6 ± 1.76 µM (≈ 3.81 µg/mL); Papp A→B at 2 h, 2 µM ([1]; Caco-2, pH 7.4): 29 ×10⁻⁶ cm/s; Papp B→A at 2 h, 2 µM ([1]; Caco-2, pH 7.4): 22 ×10⁻⁶ cm/s
O=[N+]([O-])c1cn2c(n1)OC[C@H](OCc1ccc(OC(F)(F)F)cc1)C2 [(R)-PA-824 (8), (R)-PA-824] | – | – | – | – | – | – | – | – | – | – | – | – | – | activity against M. tuberculosis [13]: inactive
O=c1c2nc([N+](=O)[O-])cn2ccn1Cc1ccccc1 [17b, 7-Benzyl-2-nitroimidazo[1,2-a]pyrazin-8(7H)-one] | > 32 µg/mL | > 32 µg/mL | > 80 µM | > 79.4 µM | – | < 5 µM | < 5 µM | – | – | – | – | – | – | CC50 at 24 h [14]: 98 to 123 µM; antibacterial MIC M. tuberculosis hypoxia [15]: 4.0 to 8.0 µg/mL; CC50 at 24 h [16]: 105 µM
O=c1c2nc([N+](=O)[O-])cn2ccn1Cc1ccc(F)cc1 [17e, 7-(4-Fluorobenzyl)-2-nitroimidazo[1,2-a]pyrazin-8(7H)-one] | >32 µg/mL | > 32 µg/mL | > 80 µM | > 79.4 µM | 0.18 | < 5 µM | < 5 µM | – | – | – | – | – | – | –
Cc1cn2cc([N+](=O)[O-])nc2c(OCc2ccc(OC(F)(F)F)cc2)n1 [25g, 6-Methyl-2-nitro-8-((4-(trifluoromethoxy)benzyl)oxy)imidazo[1,2-a]pyrazine] | >32 µg/mL | > 32 µg/mL | > 80 µM | > 79.4 µM | – | < 5 µM | < 5 µM | >32 µg/mL | > 32 µg/mL | > 100 µM | > 100 µM | >64 µg/mL | > 64 µg/mL | fraction unbound at 30 min, 5 μM ([6]; read-out: PPB (%)): < 0.01
O=c1[nH]c(-c2ccccc2)cn2cc([N+](=O)[O-])nc12 [24a, 2-Nitro-6-phenylimidazo[1,2-a]pyrazin-8(7H)-one] | >32 µg/mL | > 32 µg/mL | > 80 µM | > 79.4 µM | – | – | – | >32 µg/mL | > 32 µg/mL | – | – | >64 µg/mL | > 64 µg/mL | CC50 [17]: > 100 µM; CC50 [16]: > 100 µM
O=c1c2nc([N+](=O)[O-])cn2ccn1C1CCCCC1 [17t, 7-Cyclohexyl-2-nitroimidazo[1,2-a]pyrazin-8(7H)-one] | >32 µg/mL | > 32 µg/mL | > 80 µM | > 79.4 µM | – | < 10 µM | < 10 µM | – | – | 123 µM | 112 µM | >64 µg/mL | > 64 µg/mL | CC50 at 24 h ([14]; HepG2 and HEK293 cells): 98 to 123 µM; IC50 [18, 26]: > 50 µM; IC50 [18, 27]: > 50.1 µM
O=c1c2nc([N+](=O)[O-])cn2ccn1Cc1ccc(OC(F)(F)F)cc1 [17c, 2-Nitro-7-(4-(trifluoromethoxy)benzyl)imidazo[1,2-a]pyrazin-8(7H)-one] | > 32 µg/mL | > 32 µg/mL | > 80 µM | > 79.4 µM | 0.02 | < 5 µM | < 5 µM | – | – | – | – | – | – | antibacterial MIC M. tuberculosis hypoxia [15]: 1.0 to 4.0 µg/mL; Papp A→B at 2 h, 2 µM [5]: 25 ×10⁻⁶ cm/s; Papp A→B at 2 h, 2 μM [5]: > 20 ×10⁻⁶ cm/s; Papp B→A at 2 h, 2 µM [5]: 22 ×10⁻⁶ cm/s
FC(F)(F)Oc1ccc(CO[C@@H]2COc3nccn3C2)cc1 [compound 9, S-des-nitro-PA-824] | – | – | – | – | – | – | – | – | – | – | – | – | – | MIC M. tuberculosis aerobic growth ([13]; aerobic growth): > 160 µM; MIC M. tuberculosis anaerobic growth ([13]; anaerobic growth): > 500 µM
O=c1c2nccn2ccn1Cc1ccc(F)cc1 [20c, 7-(4-Fluorobenzyl)imidazo[1,2-a]pyrazin-8(7H)-one] | – | > 32 µg/mL | > 80 µM | > 79.4 µM | – | – | – | – | > 32 µg/mL | > 100 µM | > 100 µM | – | > 64 µg/mL | MIC ([15]; Mycobacterium tuberculosis, read-out: antibacterial MIC M. tuberculosis hypoxia): > 32 µg/mL; IC50 [18, 26]: > 50 µM; IC50 [18, 27]: > 50.1 µM; IC50 ([19]; read-out: antiparasitic IC50 G. lamblia): > 50 µM; IC50 ([19]; read-out: antiparasitic pIC50 ± SE G. lamblia (converted)): > 50.1 µM; MIC [20]: > 32 µg/mL; IC50 ([21]; read-out: antiparasitic IC50 T. b. brucei): > 40 µM; IC50 ([21]; read-out: antiparasitic pIC50 ± SE T. b. brucei (converted)): > 39.8 µM
